Source: PubChem BioAssay AID248 (DTP/NCI, 2004)
Several values for one entry are separate records, joined by “and”; a condition that tells them apart may be missing. Equal entries are not always repeated. Inconclusive results and toxic doses are left out. No stated cut-off is given here; in the data, active means T/C of 150% or more; inactive means T/C below 125%. Square brackets hold non-standard residues; d marks the D form. Peptide text beside a SMILES is read from it. * marks the point of attachment. ξ: configuration not given here. Cbz = O=C(OCc1ccccc1)*; ξL = CC(C)CC(N)C(=O)O; OBn = c1ccc(CO*)cc1

System: L1210 leukemia ip in BDF1 mice, survival T/C
Assay: NCI In Vivo Anticancer Drug Screen. Data for tumor model L1210 Leukemia (intraperitoneal) in B6D2F1 (BDF1) mice
Details: endpoint: mean survival time, higher = longer survival
Summary of the method: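 Transplanted-tumor mice were given test agent; controls received vehicle only. Survival readings from the two groups were divided (treated over control).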

[1] = dose: 100.0 mg/kg/injection, schedule: Q01DX001 (ip), vehicle: saline
[2] = dose: 200.0 mg/kg/injection, schedule: Q01DX001 (ip), vehicle: saline
[3] = dose: 400.0 mg/kg/injection, schedule: Q01DX001 (ip), vehicle: saline
[4] = dose: 3.12 mg/kg/injection, schedule: Q04DX003 (ip), vehicle: saline
[5] = dose: 6.25 mg/kg/injection, schedule: Q04DX003 (ip), vehicle: saline
[6] = dose: 50.0 mg/kg/injection, schedule: Q01DX001 (ip), vehicle: saline
[7] = dose: 100.0 mg/kg/injection, schedule: Q04DX003 (ip), vehicle: Klucel (hydroxypropylcellulose) (HPC)
[8] = dose: 200.0 mg/kg/injection, schedule: Q04DX003 (ip), vehicle: Klucel (hydroxypropylcellulose) (HPC)
[9] = dose: 400.0 mg/kg/injection, schedule: Q04DX003 (ip), vehicle: Klucel (hydroxypropylcellulose) (HPC)
[10] = dose: 100.0 mg/kg/injection, schedule: Q01DX009 (ip), vehicle: Klucel (hydroxypropylcellulose) (HPC)
[11] = dose: 200.0 mg/kg/injection, schedule: Q01DX009 (ip), vehicle: Klucel (hydroxypropylcellulose) (HPC)
[12] = dose: 100.0 mg/kg/injection, schedule: Q01DX001 (ip), vehicle: carboxymethylcellulose (CMC)
[13] = dose: 200.0 mg/kg/injection, schedule: Q01DX001 (ip), vehicle: carboxymethylcellulose (CMC)
[14] = dose: 400.0 mg/kg/injection, schedule: Q01DX001 (ip), vehicle: carboxymethylcellulose (CMC)
[15] = dose: 100.0 mg/kg/injection, schedule: Q01DX009 (ip), vehicle: saline with Tween-80
[16] = dose: 200.0 mg/kg/injection, schedule: Q01DX009 (ip), vehicle: saline with Tween-80
[17] = dose: 100.0 mg/kg/injection, schedule: Q01DX001 (ip), vehicle: Klucel (hydroxypropylcellulose) (HPC)
[18] = dose: 200.0 mg/kg/injection, schedule: Q01DX001 (ip), vehicle: Klucel (hydroxypropylcellulose) (HPC)
[19] = dose: 400.0 mg/kg/injection, schedule: Q01DX001 (ip), vehicle: Klucel (hydroxypropylcellulose) (HPC)
[20] = dose: 25.0 mg/kg/injection, schedule: Q04DX003 (ip), vehicle: saline
[21] = dose: 50.0 mg/kg/injection, schedule: Q04DX003 (ip), vehicle: saline
[22] = dose: 100.0 mg/kg/injection, schedule: Q04DX003 (ip), vehicle: saline
[23] = dose: 100.0 mg/kg/injection, schedule: Q04DX002 (ip), vehicle: saline with Tween-80
[24] = dose: 100.0 mg/kg/injection, schedule: Q04DX003 (ip), vehicle: saline with Tween-80
[25] = dose: 200.0 mg/kg/injection, schedule: Q04DX002 (ip), vehicle: saline with Tween-80
[26] = dose: 200.0 mg/kg/injection, schedule: Q04DX003 (ip), vehicle: saline with Tween-80
[27] = dose: 400.0 mg/kg/injection, schedule: Q01DX009 (ip), vehicle: saline with Tween-80
[28] = dose: 400.0 mg/kg/injection, schedule: Q04DX003 (ip), vehicle: saline with Tween-80
[29] = dose: 100.0 mg/kg/injection, schedule: Q04DX002 (ip), vehicle: Klucel (hydroxypropylcellulose) (HPC)
[30] = dose: 200.0 mg/kg/injection, schedule: Q04DX002 (ip), vehicle: Klucel (hydroxypropylcellulose) (HPC)
[31] = dose: 400.0 mg/kg/injection, schedule: Q04DX002 (ip), vehicle: Klucel (hydroxypropylcellulose) (HPC)

Measured: T/C

CCOC(=O)C1OC1C1c2cccc3cccc(c23)C1C1OC1C(=O)OCC (configuration not stated)
inactive: [1] 107 % of control | [2] 94 % of control | [3] 102 % of control

CC(/C=C(\C)N1CCCC1)=[N+]1CCCC1
inactive: dose: 0.78 mg/kg/injection, schedule: Q01DX009 (ip), vehicle: saline 101 % of control | dose: 1.56 mg/kg/injection, schedule: Q01DX009 (ip), vehicle: saline 101 % of control | dose: 1.56 mg/kg/injection, schedule: Q04DX003 (ip), vehicle: saline 94 % of control and 108 % of control | [4] 112 % of control and 89 % of control | [5] 110 % of control

O=C1NC(=O)C(c2cccc(O)c2)N1 (configuration not stated)
inactive: [6] 100 % of control | [1] 100 % of control | [2] 100 % of control | [3] 100 % of control

CC(C)CC(NC(=O)CNC(=O)CNC(=O)OCc1ccccc1)C(=O)OCc1ccccc1 (stereo not drawn) (Cbz-Gly-Gly-[ξL]-OBn)
inactive: [7] 94 % of control | [8] 96 % of control | [9] 100 % of control

CC(=O)Nc1ccc(S(=O)(=O)c2ccc(NC(C)=O)cc2)cc1
inactive: dose: 50.0 mg/kg/injection, schedule: Q01DX009 (ip), vehicle: Klucel (hydroxypropylcellulose) (HPC) 103 % of control | [10] 93 % of control | [11] 97 % of control

CC(C)(C)NC(=O)NN(c1ccccc1)C1CCS(=O)(=O)C1 (configuration not stated)
inactive: dose: 100.0 mg/kg/injection, schedule: Q04DX002 (ip), vehicle: saline 108 % of control | dose: 200.0 mg/kg/injection, schedule: Q04DX002 (ip), vehicle: saline 97 % of control | dose: 400.0 mg/kg/injection, schedule: Q04DX002 (ip), vehicle: saline 97 % of control

NNc1c(Cl)c(F)c(Cl)c(F)c1Cl
inactive: [12] 104 % of control | [13] 97 % of control | [14] 104 % of control

CC(C)CC(Br)C(=O)NCC(=O)NC(Cc1ccccc1)C(=O)O (configuration not stated)
inactive: [15] 96 % of control | [16] 93 % of control

COC(=O)c1ccc(OC(=O)Nc2cc(Cl)ccc2C)cc1
inactive: [15] 106 % of control | [16] 89 % of control

COc1cccc(CC(=O)c2c[nH]c3ccccc23)c1
inactive: [6] 104 % of control | [1] 101 % of control | [2] 98 % of control | [3] 101 % of control

CC(C)C(C)/C=C/C(C)C1CCC2C3CC=C4CC(O)CCC4(C)C3CCC12C (configuration not stated)
inactive: [17] 97 % of control | [18] 101 % of control | [19] 90 % of control

NCCCc1nc(N)nc(N)c1-c1ccc(Cl)cc1
inactive: [20] 104 % of control | [21] 110 % of control | [22] 103 % of control

ClCc1ccc(CCl)c2ccccc12
inactive: [7] 104 % of control | [8] 105 % of control | [9] 100 % of control

CCOc1ccccc1NC(=S)NC(=O)CCc1ccccc1
inactive: [15] 102 % of control and 104 % of control | [23] 104 % of control | [24] 105 % of control | [16] 93 % of control and 108 % of control | [25] 98 % of control | [26] 97 % of control | [27] 97 % of control and 89 % of control | dose: 400.0 mg/kg/injection, schedule: Q04DX002 (ip), vehicle: saline with Tween-80 91 % of control | [28] 89 % of control

Cn1nc2c(N)ncnc2c1C1OC(CO)C(O)C1O (configuration not stated)
inactive: dose: 100.0 mg/kg/injection, schedule: Q01DX005 (ip), vehicle: saline 116 % of control | dose: 200.0 mg/kg/injection, schedule: Q01DX005 (ip), vehicle: saline 106 % of control

OC(Cc1ccccc1)(c1ccccc1)c1cccc2ccccc12 (configuration not stated)
inactive: [10] 90 % of control | [7] 100 % of control | [11] 95 % of control | [8] 109 % of control | dose: 400.0 mg/kg/injection, schedule: Q01DX009 (ip), vehicle: Klucel (hydroxypropylcellulose) (HPC) 92 % of control | [9] 97 % of control

O=C(Nc1ccccc1)C(=O)c1ccccc1
inactive: [17] 98 % of control | [18] 93 % of control | [19] 106 % of control

CC(=O)CC(=O)Nc1cc(Cl)c(NC(=O)CC(C)=O)cc1Cl
inactive: [26] 121 % of control | [28] 88 % of control

Oc1c(Cl)cc(Cl)cc1/C=N\Nc1ccccn1
inactive: [17] 92 % of control | [18] 95 % of control | [19] 95 % of control

NCCCC1C(CN)C2CC1C1C3CCC(C3)C21 (configuration not stated)
inactive: [4] 100 % of control | [5] 100 % of control | dose: 12.5 mg/kg/injection, schedule: Q01DX009 (ip), vehicle: saline 106 % of control | dose: 12.5 mg/kg/injection, schedule: Q04DX003 (ip), vehicle: saline 97 % of control | dose: 25.0 mg/kg/injection, schedule: Q01DX009 (ip), vehicle: saline 110 % of control | [20] 97 % of control and 103 % of control | dose: 50.0 mg/kg/injection, schedule: Q01DX009 (ip), vehicle: saline 106 % of control | [21] 105 % of control | [22] 98 % of control

Cc1c(C)c(NC(=O)/C=C/C(=O)O)c(C)c(C)c1NC(=O)/C=C\C(=O)O
inactive: [15] 104 % of control | [16] 96 % of control | [27] 102 % of control

Cc1cc(C)[nH]c(=O)c1
inactive: [24] 109 % of control | [26] 102 % of control | [28] 98 % of control

C/C(=N/N(C)C)c1ccccn1
inactive: [15] 104 % of control | [24] 91 % of control | [16] 95 % of control | [26] 95 % of control | [28] 106 % of control

C=C(C)C(=O)Oc1ccccc1-c1ccccc1
inactive: [29] 100 % of control | [30] 96 % of control | [31] 92 % of control

CCCCN(CCCC)CCP(=O)(OCC)OCC
inactive: [23] 97 % of control | [25] 105 % of control

CCc1cc2c(cc1C(=O)/C=C\c1cccc3ccccc13)C(C)(C)CCC2(C)C
inactive: dose: 25.0 mg/kg/injection, schedule: Q04DX002 (ip), vehicle: saline with Tween-80 89 % of control | [23] 89 % of control

C(=C\c1cccnc1)/c1ccncc1
inactive: dose: 50.0 mg/kg/injection, schedule: Q04DX003 (ip), vehicle: saline with Tween-80 97 % of control | [24] 102 % of control

CC(=O)CC(=O)Nc1cc(C)ccc1C
inactive: [22] 101 % of control | dose: 200.0 mg/kg/injection, schedule: Q04DX003 (ip), vehicle: saline 118 % of control | dose: 400.0 mg/kg/injection, schedule: Q04DX003 (ip), vehicle: saline 95 % of control

O=C1c2ccccc2C(c2ccccc2)(N(CCCl)CCCl)N1C1CCCCC1 (configuration not stated)
inactive: [7] 103 % of control | [8] 102 % of control | [9] 97 % of control

NC(=O)c1ccc(OC(F)(F)C(F)Cl)cc1OC(F)(F)C(F)Cl (configuration not stated)
inactive: [24] 98 % of control | [28] 102 % of control

CCOP(=O)(OCC)OC(=C(Cl)Cl)C(Cl)(Cl)Cl
inactive: [23] 115 % of control | [25] 102 % of control

O=C(/C=C/c1ccccc1)OCc1ccccc1CN1CCCCC1
inactive: [29] 104 % of control | [30] 96 % of control | [31] 86 % of control

c1ccc(-c2cn3ccccc3n2)cc1
inactive: dose: 100.0 mg/kg/injection, schedule: Q01DX001 (ip), vehicle: saline with Tween-80 94 % of control | [7] 96 % of control | dose: 200.0 mg/kg/injection, schedule: Q01DX001 (ip), vehicle: saline with Tween-80 92 % of control | [8] 94 % of control | dose: 400.0 mg/kg/injection, schedule: Q01DX001 (ip), vehicle: saline with Tween-80 94 % of control | [9] 98 % of control

Cc1ncc(COCc2ccccc2)c(CO)c1OCc1ccccc1
inactive: [12] 92 % of control | [13] 94 % of control | [14] 94 % of control
